In patent EP4635500A1, “THERAPEUTIC AGENT FOR BACTERIAL INFECTION” (Sumitomo Pharma Co., Ltd., priority 2022, dated 2024):
Converted amounts (≈) assume the structure as drawn. Where two headings read alike, the source gives them in different places.

Test system: Enterobacterales
Assay: MIC, broth microdilution, CDC/FDA Antibiotic Resistance Isolate Bank (Example 7, Tables 8, 11, 12)
Format: cell-based

**Q.** Which results are given for `C[C@@H](O)[C@H]1C(=O)N2C(C(=O)O)=C(S[C@@H]3CN[C@H](C(=O)N(C)C)C3)[C@H](C)[C@H]12` [MEPM, meropenem]?
**A.** MIC (Klebsiella pneumoniae, KUB No. 5635, AR Bank# 138, NDM-7, read-out: MIC): > 32 µg/mL; MIC (Klebsiella pneumoniae, KUB No. 5636, AR Bank# 139, NDM-1, read-out: MIC): 0.12 µg/mL (≈ 0.313 µM); MIC (Klebsiella pneumoniae, KUB No. 5637, AR Bank# 140, OXA-181, read-out: MIC): 1 µg/mL (≈ 2.61 µM); MIC (Klebsiella pneumoniae, KUB No. 5639, AR Bank# 142, OXA-181, read-out: MIC): 1 µg/mL (≈ 2.61 µM); MIC (Klebsiella pneumoniae, KUB No. 5640, AR Bank# 143, NDM-L, read-out: MIC): > 32 µg/mL; MIC (Klebsiella pneumoniae, KUB No. 5642, AR Bank# 145, NDM-1, read-out: MIC): 8 µg/mL (≈ 20.9 µM); MIC (Klebsiella pneumoniae, KUB No. 5643, AR Bank# 146, NDM-1, read-out: MIC): 8 µg/mL (≈ 20.9 µM); MIC (Klebsiella pneumoniae, KUB No. 5645, AR Bank# 148, NDM-1, read-out: MIC): 8 µg/mL (≈ 20.9 µM); MIC (Klebsiella pneumoniae, KUB No. 5650, AR Bank# 153, OXA-232, NDM-1, read-out: MIC): > 32 µg/mL; MIC (Klebsiella pneumoniae, KUB No. 5655, AR Bank# 158, NDM-1, read-out: MIC): 8 µg/mL (≈ 20.9 µM); MIC (Klebsiella pneumoniae, KUB No. 5657, AR Bank# 160, OXA-48, read-out: MIC): 8 µg/mL (≈ 20.9 µM); MIC (Klebsiella pneumoniae, KUB No. 5757, AR Bank# 361, KPC-2, read-out: MIC): 8 µg/mL (≈ 20.9 µM); MIC (Klebsiella pneumoniae, KUB No. 5758, AR Bank# 362, KPC-2, read-out: MIC): 8 µg/mL (≈ 20.9 µM); MIC (Klebsiella pneumoniae, KUB No. 5759, AR Bank# 363, KPC-2, read-out: MIC): 4 µg/mL (≈ 10.4 µM); MIC (Klebsiella pneumoniae, KUB No. 5760, AR Bank# 364, no carbapenemase genes, read-out: MIC): 1 µg/mL (≈ 2.61 µM); MIC (Klebsiella pneumoniae, KUB No. 5772, AR Bank# 376, no carbapenemase genes, read-out: MIC): 0.12 µg/mL (≈ 0.313 µM); MIC (Klebsiella pneumoniae, KUB No. 5797, AR Bank# 453, KPC-3, read-out: MIC): > 32 µg/mL; MIC (Klebsiella pneumoniae, KUB No. 5809, AR Bank# 504, OXA-48, read-out: MIC): 4 µg/mL (≈ 10.4 µM); MIC (Klebsiella pneumoniae, KUB No. 5810, AR Bank# 505, NDM-1, read-out: MIC): 16 µg/mL (≈ 41.7 µM); MIC (Klebsiella pneumoniae, KUB No. 5811, AR Bank# 506, NDM-1, read-out: MIC): 16 µg/mL (≈ 41.7 µM); MIC (Klebsiella pneumoniae, KUB No. 5812, AR Bank# 507, OXA-232, NDM-1, read-out: MIC): > 32 µg/mL; MIC (Klebsiella pneumoniae, KUB No. 5827, AR Bank# 522, KPC-2, read-out: MIC): 8 µg/mL (≈ 20.9 µM); MIC (Klebsiella pneumoniae, KUB No. 5828, AR Bank# 523, KPC-2 (row continued in Table 8-7), read-out: MIC): 16 µg/mL (≈ 41.7 µM); MIC (Klebsiella pneumoniae, KUB No. 5829, AR Bank# 524, KPC-3, read-out: MIC): 16 µg/mL (≈ 41.7 µM); MIC (Klebsiella pneumoniae, KUB No. 5830, AR Bank# 525, KPC-11, read-out: MIC): 8 µg/mL (≈ 20.9 µM); MIC (Klebsiella pneumonice, KUB No. 5649, AR Bank# 152, NDM-1, read-out: MIC): 8 µg/mL (≈ 20.9 µM); MIC (Kluyvera ascorbata): 2 µg/mL (≈ 5.22 µM); MIC (Morganella morganii, KUB No. 5630, AR Bank# 133, KPC-2, read-out: MIC): 1 µg/mL (≈ 2.61 µM); MIC (Morganella morganii, KUB No. 5824, AR Bank# 519, no carbapenemase genes, read-out: MIC): 2 µg/mL (≈ 5.22 µM); MIC (Proteus mirabilis, KUB No. 5556, AR Bank # 59, no carbapenemase gene, read-out: MIC): 0.12 µg/mL (≈ 0.313 µM); MIC (Proteus mirabilis, KUB No. 5652, AR Bank# 155, KPC-6, read-out: MIC): 1 µg/mL (≈ 2.61 µM); MIC (Proteus mirabilis, KUB No. 5653, AR Bank# 156, KPC-2, read-out: MIC): 0.12 µg/mL (≈ 0.313 µM); MIC (Proteus mirabilis, KUB No. 5656, AR Bank# 159, NDM-1, read-out: MIC): 2 µg/mL (≈ 5.22 µM); MIC (Proteus mirabilis, KUB No. 5773, AR Bank# 377, KPC-3, read-out: MIC): 1 µg/mL (≈ 2.61 µM); MIC (Proteus mirabilis, KUB No. 5775, AR Bank# 379, no carbapenemase genes, read-out: MIC): ≤ 0.06 µg/mL; MIC (Providencia rettgeri): 8 µg/mL (≈ 20.9 µM); MIC (Salmonella enterica): 16 µg/mL (≈ 41.7 µM); MIC (Serratia marcescens, KUB No. 5588, AR Bank # 91, SME-3, read-out: MIC): 16 µg/mL (≈ 41.7 µM); MIC (Serratia marcescens, KUB No. 5596, AR Bank # 99, SME-3, read-out: MIC): 16 µg/mL (≈ 41.7 µM); MIC (Serratia marcescens, KUB No. 5618, AR Bank # 121, SME-3, read-out: MIC): 16 µg/mL (≈ 41.7 µM); MIC (Serratia marcescens, KUB No. 5619, AR Bank # 122, SME-3, read-out: MIC): 32 µg/mL (≈ 83.4 µM); MIC (Serratia marcescens, KUB No. 5620, AR Bank # 123, SME-3, read-out: MIC): 2 µg/mL (≈ 5.22 µM); MIC (Serratia marcescens, KUB No. 5621, AR Bank # 124, SME-3, read-out: MIC): 32 µg/mL (≈ 83.4 µM)
